pIC50, pKd: −log10 of the molar value.
target: T1, EGFR (Homo sapiens, UniProt P00533); experiment: Binding constant (Kd) measurement, T7 phage-displayed kinase competition binding, wildtype EGFR; parameters: made in house; conditions: read-out: Kd for EGFR (DKIN) Binding
From the text: Methods for measuring binding affinities for interactions between small molecules and kinases including FLT3, c-KIT, ABL(T334I) [a.k.a. […] The components of the assays include human kinases expressed as fusions to T7 bacteriophage particles and immobilized ligands that bind to the ATP site of the kinases. […] If the test compound binds the kinase it competes with the immobilized ligand and prevents binding to the solid support. […] The results are read out by quantitating the amount of fusion protein bound to the solid support, which is accomplished by either traditional phage plaque assays or by quantitative PCR (qPCR) using the phage genome as a template.
The term “ND” represents non-determined values.
To measure the Kd values, the T7 phage displaying human EGFR were incubated with an […] affinity matrix in the presence of various concentrations of a soluble (non-immobilized) compounds provided herein, as described in detail herein.

T1 sequence (P00533 25-1210): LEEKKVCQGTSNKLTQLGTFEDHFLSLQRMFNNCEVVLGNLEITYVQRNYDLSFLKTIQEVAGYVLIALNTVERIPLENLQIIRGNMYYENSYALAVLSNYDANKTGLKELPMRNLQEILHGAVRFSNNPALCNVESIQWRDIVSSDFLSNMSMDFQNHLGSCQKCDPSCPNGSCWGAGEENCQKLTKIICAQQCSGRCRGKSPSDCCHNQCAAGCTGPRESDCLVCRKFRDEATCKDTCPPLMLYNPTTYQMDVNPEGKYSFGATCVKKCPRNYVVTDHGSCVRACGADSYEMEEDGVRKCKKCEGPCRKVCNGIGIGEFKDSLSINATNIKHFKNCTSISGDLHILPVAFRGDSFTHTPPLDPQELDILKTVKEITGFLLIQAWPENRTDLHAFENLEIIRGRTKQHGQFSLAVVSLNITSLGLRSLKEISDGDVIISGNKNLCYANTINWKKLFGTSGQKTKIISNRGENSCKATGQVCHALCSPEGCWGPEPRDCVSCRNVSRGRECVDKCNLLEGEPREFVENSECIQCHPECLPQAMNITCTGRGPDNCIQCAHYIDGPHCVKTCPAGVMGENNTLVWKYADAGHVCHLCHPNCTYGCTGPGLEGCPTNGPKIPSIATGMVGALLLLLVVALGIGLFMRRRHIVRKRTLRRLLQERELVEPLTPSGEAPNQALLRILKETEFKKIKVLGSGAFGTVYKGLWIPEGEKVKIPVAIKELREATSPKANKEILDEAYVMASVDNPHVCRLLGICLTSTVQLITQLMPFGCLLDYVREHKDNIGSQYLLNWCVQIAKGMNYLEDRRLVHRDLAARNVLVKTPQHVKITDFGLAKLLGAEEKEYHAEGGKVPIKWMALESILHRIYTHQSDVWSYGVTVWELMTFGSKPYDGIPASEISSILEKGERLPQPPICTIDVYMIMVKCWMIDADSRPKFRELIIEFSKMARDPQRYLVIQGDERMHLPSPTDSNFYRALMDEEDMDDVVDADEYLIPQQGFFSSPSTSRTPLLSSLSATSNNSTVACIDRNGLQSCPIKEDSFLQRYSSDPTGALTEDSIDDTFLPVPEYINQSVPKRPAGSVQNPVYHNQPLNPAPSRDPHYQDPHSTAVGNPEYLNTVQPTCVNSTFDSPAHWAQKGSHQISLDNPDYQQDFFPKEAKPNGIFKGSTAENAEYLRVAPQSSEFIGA

Structure (SMILES) | pKd
C[C@H](Nc1ncnc2c1[nH]c1ccccc12)c1ccccc1 [Compound C2] | > 7.00
Fc1ccc(Nc2ncnc3c2[nH]c2ccccc23)cc1Cl [Compound C14] | 6.00 to 7.00
COc1ccc(-c2cc3c(N[C@@H](C)c4ccccc4)ncnc3n2C)cc1 [Compound D9] | < 5.00
COc1ccc(-c2cc3c(N[C@@H](C)c4ccccc4)ncnc3n2C(C)C)cc1 [Compound D10] | > 7.00
Clc1ccc(Nc2ncnc3[nH]cnc23)cc1Cl [Compound G3] | 5.00 to 6.00
O=C(O)c1cccc(Nc2ncnc3[nH]cnc23)c1 [Compound G6] | < 5.00
Clc1cccc(Nc2ncnc3[nH]cnc23)c1 [Compound G12] | < 5.00
COc1cccc(CNc2ncnc3nc[nH]c23)c1 [Compound G15] | < 5.00
C[C@@H](Nc1ncnc2oc(-c3ccccc3)c(-c3ccccc3)c12)c1ccccc1 [Compound H1, (5,6-Diphenyl-furo[2,3-d]pyrimidin-4-yl)-(1-phenyl-ethyl)-amine] | > 7.00
CC(Nc1ncnc2oc(-c3ccccc3)c(-c3ccccc3)c12)c1ccccc1 (centres unmarked) [Compound H3] | > 7.00
COc1ccc(-c2nc3c(NCc4cccc(C)c4)ncnc3[nH]2)cc1 [Compound I4] | 6.00 to 7.00
COc1ccc(-c2cc3c(Nc4cccc(C(F)(F)F)c4)ncnc3[nH]2)cc1 [Compound I5] | > 7.00
COC(=O)C(Nc1ncnc2[nH]c(-c3ccc(OC)cc3)cc12)c1ccccc1 (centres unmarked) [Compound I7] | 6.00 to 7.00
COc1ccc(-c2cc3c(NCCc4ccccc4)ncnc3[nH]2)cc1 [Compound I8] | 6.00 to 7.00
C[C@H](Nc1ncnc2[nH]c(-c3ccc(O)cc3)cc12)c1ccccc1 [Compound I9] | 5.00 to 6.00
COc1cccc(-c2cc3c(NCc4cccc(Cl)c4)ncnc3[nH]2)c1 [Compound I11] | > 7.00
COc1cccc(-c2cc3c(NCc4cccc(C)c4)ncnc3[nH]2)c1 [Compound I12] | 6.00 to 7.00
COc1cccc(-c2cc3c(NCc4ccccc4)ncnc3[nH]2)c1 [Compound I14] | > 7.00
COc1cccc(-c2cc3c(NCc4ccc(Cl)cc4)ncnc3[nH]2)c1 [Compound I16] | > 7.00
COc1ccc(C(C)Nc2ncnc3[nH]c(-c4cccc(OC)c4)cc23)cc1 (centres unmarked) [Compound I17] | 5.00 to 6.00

Structure (SMILES) | pKd
CC(Nc1ncnc2[nH]c(-c3ccc(O)cc3)cc12)c1ccccc1 (centres unmarked) [Compound I18] | > 7.00
COc1cccc(CNc2ncnc3[nH]c(-c4ccc(O)cc4)cc23)c1 [Compound I19] | 6.00 to 7.00
Cc1cccc(CNc2ncnc3[nH]c(-c4ccc(O)cc4)cc23)c1 [Compound I20] | > 7.00
Oc1ccc(-c2cc3c(NCc4ccccc4)ncnc3[nH]2)cc1 [Compound I21] | > 7.00
Oc1ccc(-c2cc3c(NCCc4ccccc4)ncnc3[nH]2)cc1 [Compound I22] | > 7.00
COc1ccc(C(C)Nc2ncnc3[nH]c(-c4ccc(O)cc4)cc23)cc1 (centres unmarked) [Compound I23] | 5.00 to 6.00
C[C@H](Nc1ncnc2[nH]c(-c3ccc(Br)cc3)cc12)c1ccccc1 [Compound I24] | > 7.00
COc1ccc(Cn2c(-c3ccc(OC)cc3)cc3c(Nc4cc(C)cc(C)c4)ncnc32)cc1 [Compound K6] | 5.00 to 6.00
COc1ccc(Cn2c(-c3ccc(OC)cc3)cc3c(Nc4cccc(O)c4)ncnc32)cc1 [Compound K7] | 5.00 to 6.00
COc1ccc(Cn2c(-c3ccc(OC)cc3)cc3c(Nc4cccc(F)c4)ncnc32)cc1 [Compound K8] | 5.00 to 6.00
COc1ccc(Cn2c(-c3ccc(OC)cc3)cc3c(NCc4cccc(Cl)c4)ncnc32)cc1 [Compound M20] | 5.00 to 6.00
COc1ccc(-c2cc3c(N[C@H](C)c4ccccc4)ncnc3[nH]2)cc1 [Compound M21] | > 7.00
COc1ccc(-c2cc3c(N[C@H](C)c4ccccc4)nc(N[C@@H](C)c4ccccc4)nc3[nH]2)cc1 [Compound M22] | > 7.00
COc1ccc(-c2cc3c(NC(C)c4ccccc4)ncnc3[nH]2)cc1 (centres unmarked) [Compound M24] | 6.00 to 7.00
Cn1c(-c2ccc(O)cc2)cc2c(Nc3cccc(Br)c3)ncnc21 [Compound Q7] | 5.00 to 6.00
COc1ccc(-c2cc3c(Nc4cc(Cl)cc(Cl)c4)ncnc3[nH]2)cc1 [Compound S2] | 6.00 to 7.00
COc1ccc(-c2cc3c(Nc4cccc(C(=O)O)c4)ncnc3[nH]2)cc1 [Compound S3] | > 7.00
COC(=O)c1cccc(Nc2ncnc3[nH]c(-c4ccc(OC)cc4)cc23)c1 [Compound S4] | > 7.00
COc1ccc(-c2cc3c(Nc4ccc(Cl)c(C(F)(F)F)c4)ncnc3[nH]2)cc1 [Compound S8] | > 7.00
COc1ccc(-c2cc3c(Nc4cccc(C)c4)ncnc3[nH]2)cc1 [Compound S10] | > 7.00

Structure (SMILES) | pKd
COc1cccc(-c2cc3c(Nc4cc(C)cc(C)c4)ncnc3[nH]2)c1 [Compound S13] | > 7.00
COC(=O)c1cccc(Nc2ncnc3[nH]c(-c4cccc(OC)c4)cc23)c1 [Compound S15] | < 5.00
COc1cccc(-c2cc3c(Nc4cccc(O)c4)ncnc3[nH]2)c1 [Compound S16] | > 7.00
COc1cccc(-c2cc3c(Nc4ccc(Cl)c(Cl)c4)ncnc3[nH]2)c1 [Compound S19] | > 7.00
COc1cccc(Nc2ncnc3[nH]c(-c4cccc(OC)c4)cc23)c1 [Compound S21] | > 7.00
COc1cccc(-c2cc3c(Nc4cccc(F)c4)ncnc3[nH]2)c1 [Compound S22] | > 7.00
COc1cccc(-c2cc3c(Nc4ccc(Cl)cc4)ncnc3[nH]2)c1 [Compound S23] | > 7.00
COc1cccc(-c2cc3c(Nc4ccc(F)cc4)ncnc3[nH]2)c1 [Compound S24] | > 7.00
COc1cccc(-c2cc3c(Nc4ccccc4)ncnc3[nH]2)c1 [Compound S27] | > 7.00
COc1cccc(-c2cc3c(Nc4ccc(C)cc4)ncnc3[nH]2)c1 [Compound S28] | > 7.00
Cc1cc(C)cc(Nc2ncnc3[nH]c(-c4ccc(O)cc4)cc23)c1 [Compound S30] | > 7.00
O=C(O)c1cccc(Nc2ncnc3[nH]c(-c4ccc(O)cc4)cc23)c1 [Compound S31] | 5.00 to 6.00
COC(=O)c1cccc(Nc2ncnc3[nH]c(-c4ccc(O)cc4)cc23)c1 [Compound S32] | 6.00 to 7.00
Oc1ccc(-c2cc3c(Nc4cccc(O)c4)ncnc3[nH]2)cc1 [Compound S33] | > 7.00
Oc1ccc(-c2cc3c(Nc4cccc(F)c4)ncnc3[nH]2)cc1 [Compound S35] | > 7.00
COc1cccc(Nc2ncnc3[nH]c(-c4ccc(O)cc4)cc23)c1 [Compound S36] | > 7.00
Oc1ccc(-c2cc3c(Nc4ccc(F)cc4)ncnc3[nH]2)cc1 [Compound S37] | > 7.00
Clc1cc(Cl)cc(Nc2ncnc3[nH]c(-c4ccc(Br)cc4)cc23)c1 [Compound S38] | 5.00 to 6.00
Cc1cc(C)cc(Nc2ncnc3[nH]c(-c4ccc(Br)cc4)cc23)c1 [Compound S39] | 6.00 to 7.00
COc1cccc(Nc2ncnc3[nH]c(-c4ccc(Br)cc4)cc23)c1 [Compound S42] | 6.00 to 7.00

target: T1, EGFR; experiment: EGFR autophosphorylation (tyrosine 1173) inhibition assay in lung cancer cell line A459; type: cell-based; parameters: 3.6×10^5 A549 cells/well in a 24-well culture plate; endogenous in cells; conditions: EGF-induced phosphorylation of tyrosine 1173
Protocol: (§1) Cells were stimulated by the addition of 5 ng/ml of EGF for five minutes. Cells were then washed with cold phosphate buffered saline (PBS), and incubated for 30 minutes at 4° C. in lysis buffer. […] Total EGFR levels were also measured in the same manner to control for protein level differences.

Structure (SMILES) | pIC50
C[C@H](Nc1ncnc2c1[nH]c1ccccc12)c1ccccc1 [Compound C2] | 5.00 to 6.00
COc1ccc(-c2cc3c(N[C@@H](C)c4ccccc4)ncnc3n2C(C)C)cc1 [Compound D10] | > 7.00

target: T1, EGFR; experiment: EGFR autophosphorylation (tyrosine 1173) inhibition assay in A431 cells; type: cell-based; parameters: 4×10^4 A431 cells/well in a 96-well culture plate; endogenous in cells; host or cells: A431; conditions: Epidermoid Carcinoma Cell Line A431; EGF-induced phosphorylation of tyrosine 1173
Protocol: as §1

Structure (SMILES) | pIC50
C[C@H](Nc1ncnc2c1[nH]c1ccccc12)c1ccccc1 [Compound C2] | 6.00 to 7.00
COc1ccc(-c2cc3c(N[C@@H](C)c4ccccc4)ncnc3n2C(C)C)cc1 [Compound D10] | 6.00 to 7.00
C[C@@H](Nc1ncnc2oc(-c3ccccc3)c(-c3ccccc3)c12)c1ccccc1 [Compound H1, (5,6-Diphenyl-furo[2,3-d]pyrimidin-4-yl)-(1-phenyl-ethyl)-amine] | 6.00 to 7.00
CC(Nc1ncnc2oc(-c3ccccc3)c(-c3ccccc3)c12)c1ccccc1 (centres unmarked) [Compound H3] | 6.00 to 7.00
COc1ccc(-c2cc3c(Nc4cccc(C)c4)ncnc3[nH]2)cc1 [Compound S10] | > 7.00
Cc1cc(C)cc(Nc2ncnc3[nH]c(-c4ccc(Br)cc4)cc23)c1 [Compound S39] | 6.00 to 7.00

From patent US20050153989A1, “Pyrrolopyrimidine derivatives and analogs and their use in the treatment and prevention of diseases” (Ambit Biosciences Corporation, priority 2004, published 2005)
